Assay [1] deals with Fusarium pseudogramineaqum. As to the kind of experiment: Indoor toxicity determination, mycelial growth assay on PDA medium. It is filed as cell-based. Conditions: mycelial growth inhibition, 25° C., wheat Fusarium pseudogramineaqum. The protocol: (§1) A detailed analysis of the fungicidal properties of cyclobutrifluram and ipconazole was conducted. First, the EC50 ([…]) of the two single compounds (hereinafter referred to as agents) was determined. According to the EC50 of the two single agents, the combination ratio of the two agents was set according to the Wadley method, and based on the Wadley synergistic coefficient SR value.
(§2) The experimental targets were Fusarium pseudogramineaqum and Fusarium solani. The cyclobutrifluram and ipconazole were selected, and the PDA solid medium were selected, and the required liquid chemicals plates were prepared at about 18 ml per plate. The mycelium blocks with 5 mm diameter were prepared at the edge of pre cultured colonies using a sterilized punch, transferred to different culture media plates, and cultivated at 25° C. The experiment used the mycelial growth assay method to prepare drug containing culture media according to different treatments. The mycelium blocks with 5 mm diameter were prepared at the edge of pre cultured colonies using a sterilized punch and transferred to different culture media plates with different drug contents. The colony diameter was measured using the cross over method, and the colony diameter (mm) was measured. The growth inhibition rate was calculated using the following formula: […]
(§3) The mycelial growth inhibition rate was converted to the inhibition probability value (y), and the drug concentration was converted to the concentration logarithm (x). The concentration logarithm was used as the x-axis and the probability value was used as the y-axis to create a toxicity regression line. The toxicity regression equation of a single agent of cyclobutrifluram and ipconazole and a mixed agent of cyclobutrifluram and ipconazole against the pathogen were obtained, and the EC50 value and correlation coefficient r were calculated.
(§4) According to the Wadley method to evaluate the interaction of the mixed agent, the calculation formula is as follows: […]
(§5) Among them, a and b are the proportions of each component in the mixed agent, and the SR value is used to analyze the mixing effect. If SR≤0.5, the mixed agent of the two drugs has an antagonistic effect; if SR=0.5-1.5, the mixed agent of the two drugs has an additive effect; if SR≥1.5, the mixed agent of the two drugs has a synergistic effect.

For the next assay, the system named is Fusarium solani. Described as above. Conditions: mycelial growth inhibition, 25° C., soybean Fusarium solani. The assay is classed as cell-based. As to the method:
as §1, §2, §3, §4, §5

Assay [2] relates to wheat stem base rot disease. Description: Field control experiment on wheat stem base rot disease (seed coating). The assay is classed as in vivo, wheat variety Quanmai 725. The protocol:
Experiments employed 20% cyclobutrifluram·ipconazole suspension seed coating agent in example 1 of formulation implementation and 45% cyclobutrifluram suspension seed coating agent, 20% ipconazole suspension seed coating agent, and 15% carbendazim·thiram suspension seed coating agent. Experimental site was located at Liu Lake Farm in Suixi County using the wheat variety “Quanmai 725”. The agent was applied to seeds at a 1:1000 ratio by weight for seed coating. Additionally, the agent was diluted into a solution, with a final volume of 1 liter of solution used to treat 100 kg of wheat seeds, which were then dried in the shade before direct planting. Disease investigations were conducted during the tillering stage and after the growth of wheat entered the jointing-booting stage (Table 3).

Here are results for two compounds from patent US20250234862A1, “FUNGICIDAL COMPOSITION FOR PREVENTING AND CONTROLLING ROOT ROT DISEASES IN CROPS CAUSED BY FUSARIUM SPP” (Institute Of Plant Protection And Agro-Products Safety, …, priority 2024, published 2025).

As to `O=C(NC1CCC1c1ccc(Cl)cc1Cl)c1cccnc1C(F)(F)F` (stereo not drawn) [Cyclobutrifluram], the EC50 in assay [1] was 0.3033 ppm; with Fusarium solani, 0.3774 ppm. For the same compound, in assay [2], the “control effect on wheat stem base rot disease (in words)” value is on record as “significant control effect”.

Regarding `CC(C)C1CCC(Cc2ccc(Cl)cc2)C1(O)Cn1cncn1` (stereo not drawn) [Ipconazole, (1RS,2SR,5RS;1RS,2SR,5SR)-2-(4-chlorobenzyl)-5-isopropyl-1-(1H-1,2,4-triazol-1-ylmethyl)cyclopentanol], the EC50 in assay [1] is 0.1506 ppm; in the assay on Fusarium solani, 0.1808 ppm. For the same compound, the “control effect on wheat stem base rot disease (in words)” value in assay [2] is reported as “significant control effect”.
